What all share (format): cell-based
The subject of assay [1] is Escherichia coli EC-1: VOGEL, mouse virulent. The assay can be described thus: MIC determination (CLSI), strain EC-1. The settings on record: Escherichia coli EC-1, VOGEL, mouse virulent; unit assumed. An outline of the steps: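 The mouse-virulent VOGEL isolate of E. coli, EC-1, served as test organism. Minimum inhibitory concentration was measured by CLSI dilution methodology (M7-A7; M100-S18 standards).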

In assay [2] the test system is Acinetobacter baumanii/haemolyticus: Multidrug-resistant clinical isolate (AB-3167). In words: MIC determination (CLSI), strain AB-3167. The settings on record: unit assumed. The protocol:
The in vitro antibacterial activity of compounds described in the Examples was evaluated by minimum inhibitory concentration (MIC) testing according to Clinical and Laboratory Standards Institute (CLSI, formerly NCCLS) guidelines. See: Clinical and Laboratory Standards Institute. Methods for Dilution Antimicrobial Susceptibility Tests for Bacteria that Grow Aerobically; Approved Standard-Seventh Edition. CLSI document M7-A7 [ISBN 1-56238-587-9]. Clinical and Laboratory Standards Institute, 940 West Valley Road, Suite 1400, Wayne, Pa. 19087-1898 USA, 2006; also Clinical and Laboratory Standards Institute. Performance Standards for Antimicrobial Susceptibility Testing; Eighteenth Informational Supplement. CLSI document M100-S18 [ISBN1-56238-653-0].Clinical and Laboratory Standards Institute.
The following bacterial strains were used in these MIC determinations:
2) Acinetobacter baumanii/haemolyticus: Multidrug-resistant clinical isolate labeled as AB-3167 in Tables 4 and 5;

Assay [3] has as its system Pseudomonas aeruginosa UI-18: Wild-type (PA-7). In words: MIC determination (CLSI), strain PA-7. The note with it: Pseudomonas aeruginosa UI-18, wild-type; unit assumed. An outline of the steps: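 MIC determined by broth dilution per CLSI M7-A7 guidelines with M100-S18 interpretive standards. Test organism: wild-type Pseudomonas aeruginosa UI-18, designated PA-7.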

This is an account of results in patent US8846933B2, “N-link hydroxamic acid derivatives useful as antibacterial agents” (Pfizer Inc., priority 2009, dated 2014).

Consider `Cn1nccc1-c1ccc(-c2ccn(CC[C@](C)(C(=O)NO)S(C)(=O)=O)c(=O)c2)cc1` [Example 24, (2R)-N-hydroxy-2-methyl-4-{4-[4-(1-methyl-1H-pyrazol-5-yl)phenyl]-2-oxopyridin-1(2H)-yl}-2-(methylsulfonyl)butanamide], for which, in assay [1], the EC-1 (MIC) was 1 µg/mL. In assay [2], the AB-3167 (MIC) is greater than 64 µg/mL. This molecule registered a PA-7 (MIC) in assay [3] of 2 µg/mL.

In assay [1], `CC(=O)c1ccc(-c2ccn(CCC(C)(C(=O)NO)S(C)(=O)=O)c(=O)c2)cc1` (stereo not drawn) [Example 68-V, 4-[4-(4-acetylphenyl)-2-oxopyridin-1(2H)-yl]-N-hydroxy-2-methyl-2-(methylsulfonyl)butanamide] displayed an EC-1 (MIC) of 4 µg/mL. Further, the AB-3167 (MIC) in assay [2] is greater than 64 µg/mL. The same molecule showed a PA-7 (MIC) in assay [3] of 4 µg/mL.

In the case of `Cc1c(-c2ccccc2)ccn(CCC(C)(C(=O)NO)S(C)(=O)=O)c1=O` (stereo not drawn) [Example 52, N-Hydroxy-2-methyl-4-(3-methyl-2-oxo-4-phenylpyridin-1(2H)-yl)-2-(methylsulfonyl)butanamide], in assay [1], the EC-1 (MIC) was found to be 2 µg/mL. For the same molecule, the AB-3167 (MIC) in assay [2] is greater than 64 µg/mL. The molecule also gave a PA-7 (MIC) in assay [3] of 4 µg/mL.

`CC(CCn1ccc(-c2ccc(CCCO)cc2)cc1=O)(C(=O)NO)S(C)(=O)=O` (stereo not drawn) [Example 31, N-Hydroxy-4-{4-[4-(3-hydroxypropyl)phenyl]-2-oxopyridin-1(2H)-yl}-2-methyl-2-(methylsulfonyl)butanamide]: in assay [1], the EC-1 (MIC) is 8 µg/mL. For the same molecule, the AB-3167 (MIC) in assay [2] is greater than 64 µg/mL. Besides, the PA-7 (MIC) in assay [3] was 4 µg/mL.

Molecule `Cc1c(-c2ccc(-n3nccn3)cc2)ccn(CC[C@](C)(C(=O)NO)S(C)(=O)=O)c1=O` [Example 68-J, (2R)-N-hydroxy-2-methyl-4-{3-methyl-2-oxo-4-[4-(2H-1,2,3-triazol-2-yl)phenyl]pyridin-1(2H)-yl}-2-(methylsulfonyl)butanamide] had an EC-1 (MIC) in assay [1] of 0.125 µg/mL. In assay [2], the AB-3167 (MIC) is greater than 64 µg/mL. Further, in assay [3], the PA-7 (MIC) came out at 1 µg/mL.

In the case of `C[C@@](CCn1ccc(-c2ccc(OC[C@H]3CC[C@@H](O)CC3)cc2)cc1=O)(C(=O)NO)S(C)(=O)=O` [Example 8, (2R)-N-hydroxy-4-[4-{4-[(cis-4-hydroxycyclohexyl)methoxy]phenyl}-2-oxopyridin-1(2H)-yl]-2-methyl-2-(methylsulfonyl)butanamide], the EC-1 (MIC) in assay [1] was determined as 0.5 µg/mL. Further, the AB-3167 (MIC) in assay [2] is greater than 64 µg/mL. The molecule further gave a PA-7 (MIC) in assay [3] of 1 µg/mL.

Turning to `CC(C)(O)COc1ccc(-c2ccn(CCC(C)(C(=O)NO)S(C)(=O)=O)c(=O)c2)cc1` (stereo not drawn) [Example 10-J, N-hydroxy-4-{4-[4-(2-hydroxy-2-methylpropoxy)phenyl]-2-oxopyridin-1(2H)-yl}-2-methyl-2-(methylsulfonyl)butanamide], the EC-1 (MIC) in assay [1] turned out to be 4 µg/mL. This molecule registered an AB-3167 (MIC) in assay [2] greater than 64 µg/mL. Also, the PA-7 (MIC) in assay [3] is 8 µg/mL.

For `COc1ccc(-c2ccn(CC[C@](C)(C(=O)NO)S(C)(=O)=O)c(=O)c2)c(F)c1F` [Example 44, (2R)-4-[4-(2,3-difluoro-4-methoxyphenyl)-2-oxopyridin-1(2H)-yl]-N-hydroxy-2-methyl-2-(methylsulfonyl)butanamide], the EC-1 (MIC) in assay [1] was found to be 0.015 µg/mL. In assay [2], this molecule came in with an AB-3167 (MIC) greater than 64 µg/mL. The PA-7 (MIC) in assay [3] was 1 µg/mL.

With `COCCSc1ccc(-c2ccn(CC[C@](C)(C(=O)NO)S(C)(=O)=O)c(=O)c2)cc1` [Example 48, (2R)-N-hydroxy-4-[4-{4-[(2-methoxyethyl)thio]phenyl}-2-oxopyridin-1(2H)-yl]-2-methyl-2-(methylsulfonyl)butanamide], the EC-1 (MIC) in assay [1] was found to be 0.25 µg/mL. The same molecule displayed an AB-3167 (MIC) in assay [2] greater than 64 µg/mL. The same molecule gave a PA-7 (MIC) in assay [3] of 1 µg/mL.

In assay [1], `CC(CCn1ccc(-c2ccc(Oc3ccccn3)cc2)cc1=O)(C(=O)NO)S(C)(=O)=O` (stereo not drawn) [Example 29, N-Hydroxy-2-methyl-2-(methylsulfonyl)-4-{2-oxo-4-[4-(pyridin-2-yloxy)phenyl]pyridin-1(2H)-yl}butanamide] registered an EC-1 (MIC) of 0.5 µg/mL. The molecule also gave an AB-3167 (MIC) in assay [2] greater than 64 µg/mL. The molecule also came in with a PA-7 (MIC) in assay [3] of 4 µg/mL.
